Where two headings read alike, the source gives them in different places.
Key:
T. gondii [1] = details: cited from earlier work
[2] = tested on: T. gondii RH strain tachyzoites; assay: [3H]methyluracil incorporation: intracellular tachyzoite replication in human fibroblasts, RH strain; type: cell-based, Toxoplasma gondii; details: drug added 6 hours after infection; for inhibition of intracellular RH strain tachyzoite replication: dose-dependent
[3] = tested on: T. gondii Me49 strain tachyzoites; assay: [3H]methyluracil incorporation: intracellular tachyzoite replication in human fibroblasts, Me49 strain; type: cell-based, Toxoplasma gondii; details: for Me49 strain more susceptible to growth inhibition than RH strain: ratio of IC50 RH / Me49
mutant tachyzoite SBRRH2 = assay: Replication of SB203580-resistant RH clone SBRRH2 in fibroblasts; type: cell-based, Toxoplasma gondii
[4] = tested on: T. gondii infected dendritic cells; type: cell-based, human
T. gondii strain RH = assay: Protection of fibroblast monolayers from T. gondii-mediated destruction
Description: Photomicrographs were taken 5 days after treatment was begun.

[5] = tested on: extracellular T. gondii tachyzoites; assay: Incubation of extracellular tachyzoites with drug, wash, then [3H]uracil incorporation in fresh fibroblasts; type: cell-based, Toxoplasma gondii; details: 10 μM, extracellular tachyzoites incubated 1 hour, washed; at 48 hours
human p38 MAPK = human p38 MAPK (Homo sapiens, UniProt Q16539); details: cited from earlier work
RH strain T. gondii [6] = assay: Diamidino-2-phenylindole staining / microscopy of infected fibroblasts: tachyzoite and vacuole morphology; details: for tachyzoite morphology (bi-/multinucleated forms): diamidino-2-phenylindole staining
Procedure: Parasitophorous vacuoles and tachyzoite morphology were assessed by diamidino-2-phenylindole staining 24 hours later using an ultraviolet light with excitation at 410-430 nM.
Tachyzoites were released from infected fibroblasts by forced passage through a 27-gauge needle, and used within 2 hours of collection to infect new host cells. Tachyzoites were enumerated with a hemacytometer using Trypan blue dye. To evaluate nuclear morphology, infected cells were stained with diamidino-2phenylindole (Sigma) and examined by light microscopy at 400× magnification. To estimate the intensity of T. gondii infection, cytospin preparations of aliquots of cells in infected cultures were stained with Giemsa stain and examined by light microscopy using a 40× objective. At least 200 cells per condition were counted.

[7] = tested on: T. gondii acyl-CoA:cholesterol acyltransferase; assay: Cholesterol esterification ([14C]oleate pulse labelling) in extracellular tachyzoites; type: biochemical, Toxoplasma gondii; details: 10 μM, extracellular RH tachyzoites, 7 hours
Procedure: (§1) The mean of triplicate replications with standard error bars is shown. “Control” is no drug treatment.
One experiment representative of 4 is shown for each measure.
Cholesterol esterification activity was assessed by pulse-labeling of cells using radiolabeled fatty acid as substrate. […] At the time of drug addition, acyl-CoA:cholesterol acyltransferase activity was stimulated with 25-hydroxycholesterol plus cholesterol and cells were pulse-labeled for 2 hours with 20 μl sodium [^14C]oleate-albumin complex. Lipids were extracted with hexane/isopropanol (3:2 ratio) and the organic solvents evaporated under a nitrogen stream. Lipids were resuspended in chloroform, spotted on TLC silica gel G plates (Fisher, Fairlawn, N.J.) and separated in hexane/ethyl ether/glacial acetic acid (80:20:1 ratio). Cholesterol ester content was determined by liquid scintillation and normalized as pmol ^14C/mg protein. […] After 3 days, cells were fixed in paraformaldehyde, rinsed in PBS, stained with filipin (Sigma) and examined by fluorescence microscopy using an excitation filter of 350-410 nm. Cholesterol content was determined in densitometric units measured with an Alpha Imager 2000 (Alpha Innotech Corporation, San Leandro, Calif.).

RH strain tachyzoites = assay: Tachyzoite cholesterol content (densitometric units); type: cell-based, Toxoplasma gondii; details: 10 μM
Procedure: as §1
Cholesterol esterification activity was assessed by pulse-labeling of cells using radiolabeled fatty acid as substrate. […] At the time of drug addition, acyl-CoA:cholesterol acyltransferase activity was stimulated with 25-hydroxycholesterol plus cholesterol and cells were pulse-labeled for 2 hours with 20 μl sodium [^14C]oleate-albumin complex. Lipids were extracted with hexane/isopropanol (3:2 ratio) and the organic solvents evaporated under a nitrogen stream. Lipids were resuspended in chloroform, spotted on TLC silica gel G plates (Fisher, Fairlawn, N.J.) and separated in hexane/ethyl ether/glacial acetic acid (80:20:1 ratio). Cholesterol ester content was determined by liquid scintillation and normalized as pmol ^14C/mg protein. For cytochemical staining of 3-hydroxysterols, fibroblasts were seeded on poly-lysine coated coverslips, infected with RH T. gondii tachyzoites and incubated with drugs as described. After 3 days, cells were fixed in paraformaldehyde, rinsed in PBS, stained with filipin (Sigma) and examined by fluorescence microscopy using an excitation filter of 350-410 nm. Cholesterol content was determined in densitometric units measured with an Alpha Imager 2000 (Alpha Innotech Corporation, San Leandro, Calif.).

RH strain T. gondii [8] = assay: Stage conversion (tachyzoite to bradyzoite) by flow cytometry, RH strain; type: cell-based, Toxoplasma gondii
Procedure: Bradyzoites highly express p36 (BSR4), and p21 in cell culture, and downregulate the tachyzoite-specific proteins SAG1 and SAG2 (38, 39). […] The drugs were replaced every 5 days. After 15 days, adherent, infected fibroblasts were recovered and freed intracellular organisms were analyzed by flow cytometry (FIG. 6A).
(§2) Tachyzoites were stained with murine monoclonal antibodies specific for tachyzoite protein (SAG-2, provided by Jacqueline Channon, Dartmouth) or bradyzoite-specific antibodies against p21 or p36 (32) followed by fixation with paraformaldehyde. Flow cytometric data were acquired on a FACS Calibur (Becton-Dickinson, Mountain View, Calif.) and analyzed using CellQuest software (Becton-Dickinson) with 5000 or more events evaluated for each condition. Analysis gates were set using appropriate antibody isotype controls, and dead cells were excluded based on light scatter characteristics.

Me49 tachyzoites = assay: Stage conversion (tachyzoite to bradyzoite) by flow cytometry, Me49 strain; type: cell-based, Toxoplasma gondii; details: Me49, after 5 days of treatment
Description: as §2

RH T. gondii = assay: Combination with pyrimethamine: [3H]uracil incorporation in RH infected fibroblasts; type: cell-based, Toxoplasma gondii; details: SB203580 1 μM
Procedure: Fibroblasts were infected overnight and then treated with both drugs simultaneously or individually. Incorporated [^3H]methyuracil was measured 48 hours later. Data from one representative experiment is shown.
Pyrimethamine (Sigma) was dissolved in dimethylsulfoxide and added 1 hour after infection alone or in combination with other agents.

T. gondii [9] = assay: T. gondii replication in dendritic cells; type: cell-based, Toxoplasma gondii
[10] = infected MOI 3 for 2 days, then 10 μM, 5 days after treatment was begun
[11] = single dose 10 μM 1 hour after infection, MOI 3, three days after infection
[12] = fibroblasts, [3H]methyluracil incorporation

human p38 MAPK, sequence (Q16539 whole entry): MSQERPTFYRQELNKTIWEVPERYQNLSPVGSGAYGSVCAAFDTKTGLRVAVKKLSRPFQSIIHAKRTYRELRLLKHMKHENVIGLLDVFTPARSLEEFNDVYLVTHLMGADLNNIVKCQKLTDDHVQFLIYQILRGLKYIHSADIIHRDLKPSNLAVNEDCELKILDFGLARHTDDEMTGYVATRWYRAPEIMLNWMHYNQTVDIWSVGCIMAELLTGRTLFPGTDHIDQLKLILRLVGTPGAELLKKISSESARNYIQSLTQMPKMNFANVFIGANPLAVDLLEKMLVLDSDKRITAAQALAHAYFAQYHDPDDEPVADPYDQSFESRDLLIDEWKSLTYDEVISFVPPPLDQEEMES

**Q.** For `COc1cccc(-c2cc(=O)c3ccccc3o2)c1N` [PD098059], which “effect on intracellular T. gondii replication (Roisin et al.)” value (T. gondii [1]) is on record?
**A.** slightly reduced

**Q.** Which IC50 ([2]; [3H]methyluracil incorporation, fibroblasts, estimated by linear interpolation, read-out: IC50 for inhibition of RH strain replication) does the source give for `Oc1ccc(-c2nc(-c3ccc(F)cc3)c(-c3ccncc3)[nH]2)cc1` [SB202190, 4-(4-fluorophenyl)-2(4-hydroxphenyl)-5-(4 pyridyl)1H-imidazole] here?
**A.** ~5 µM

**Q.** What about the “inhibition of intracellular RH strain tachyzoite replication” value [2] of the same compound?
**A.** significant inhibition

**Q.** And the IC50 ([3]; [3H]methyluracil incorporation, fibroblasts, drug added 6 hours after infection, estimated by linear interpolation, read-out: IC50 for inhibition of Me49 strain replication)?
**A.** ~0.2 µM

**Q.** What about the “Me49 strain more susceptible to growth inhibition than RH strain” value [3] of the same compound?
**A.** ~25 fold

**Q.** And the “cross-resistance of SB203580-resistant tachyzoites” value (mutant tachyzoite SBRRH2)?
**A.** Cross-resistance to SB202190 was observed

**Q.** And the “reversal of T. gondii mediated immunosuppression” value (“reversal” below) [4]?
**A.** significantly reversed immunosuppression

**Q.** What about the “state of monolayer (FIG. 6 legend)” value (T. gondii strain RH; [10]) of the same compound?
**A.** virtually intact

**Q.** And the “state of infected fibroblast culture” value (T. gondii strain RH; [11])?
**A.** healthy and confluent

**Q.** For `CCc1nc(-c2ccc(OC)cc2)[nH]c1-c1ccncc1` [SB202474], which “effect on Me49 tachyzoite replication” value [3, 12] is on record?
**A.** no significant effect

**Q.** What about the “reduction of [3H]uracil incorporation” value [5] of the same compound?
**A.** < 15%

**Q.** And the “reversal” value [4]?
**A.** did not reverse immunosuppression

**Q.** What about the “p38 MAPK inhibitory activity” value (human p38 MAPK) of the same compound?
**A.** without significant p38 MAPK inhibitory effects

**Q.** And the “p38 MAPK inhibitory activity” value (human p38 MAPK; listed as SB202494)?
**A.** no anti-p38 MAPK activity

**Q.** And the “state of monolayer (FIG. 6 legend)” value (T. gondii strain RH; [10])?
**A.** completely destroyed

**Q.** What about the “state of infected fibroblast culture” value (T. gondii strain RH; [11]) of the same compound?
**A.** essentially destroyed

**Q.** What about the “tachyzoite morphology (bi-/multinucleated forms)” value (shortened to “tachyzoite morphology”) (RH strain T. gondii [6]) of the same compound?
**A.** did not induce binucleated forms

**Q.** With `C[S+]([O-])c1ccc(-c2nc(-c3ccc(F)cc3)c(-c3ccncc3)[nH]2)cc1` (centres unmarked) [SB203580, 4(4-fluorophenyl)-2-(4-methylsulfinylphenyl)-5(4-pyridyl)1H-imidazole] as the compound, how does the “inhibition of intracellular RH strain tachyzoite replication” value [2] read?
**A.** significantly inhibited

**Q.** And the “Me49 strain more susceptible to growth inhibition than RH strain” value [3]?
**A.** approximately 12 fold

**Q.** What about the “inhibition of replication of SBRRH2 in fibroblasts” value (mutant tachyzoite SBRRH2; 10 μM) of the same compound?
**A.** no detectable capacity to inhibit

**Q.** What about the “acyl-CoA:cholesterol acyltransferase activity” value [7] of the same compound?
**A.** did not interfere

**Q.** What about the tachyzoite cholesterol content (RH strain tachyzoites) of the same compound?
**A.** only minimally reduced

**Q.** What about the “p36+ organisms (bradyzoite marker)” value (RH strain T. gondii [8]; 10 μM SB203580 or 1 μg pyrimethamine, 15 days) of the same compound?
**A.** significantly higher number

**Q.** What about the “p21+ cells (bradyzoite marker)” value (RH strain T. gondii [8]; SB203580) of the same compound?
**A.** not evident

**Q.** And the “SAG2+ organisms (tachyzoite marker)” value (RH strain T. gondii [8]; after 15 days of culture with SB203580, 100% at culture outset)?
**A.** < 15%

**Q.** What about the SAG2 expression (Me49 tachyzoites) of the same compound?
**A.** decreased

**Q.** What about the p21 expression (Me49 tachyzoites) of the same compound?
**A.** significantly increased

**Q.** What about the “reversal” value [4] of the same compound?
**A.** significantly reversed immunosuppression

**Q.** What about the “inhibition of RH T. gondii replication, single agent” value (RH T. gondii) of the same compound?
**A.** effective dose

**Q.** And the “T. gondii replication in dendritic cells” value (T. gondii [9])?
**A.** does reduce

**Q.** And the “infected fibroblast monolayers under constant drug” value (T. gondii strain RH; constant 10 μM, four weeks)?
**A.** not destroyed

**Q.** And the “monolayer destroyed (FIG. 6 legend)” value (T. gondii strain RH; [10])?
**A.** approximately 50%

**Q.** What about the “infected fibroblast culture destroyed” value (T. gondii strain RH; [11]) of the same compound?
**A.** approximately 50%

**Q.** What about the “cyst-like structures in infected fibroblasts” value (RH strain T. gondii [6]; after 3 to 5 days) of the same compound?
**A.** developed cyst-like structures

**Q.** And the “tachyzoite morphology” value (RH strain T. gondii [6])?
**A.** induced formation of tachyzoites with two or more nuclei

**Q.** For `N#CC(=C(/N)Sc1ccccc1N)/C(C#N)=C(\N)Sc1ccccc1N` [U0126], which “inhibition of intracellular RH strain tachyzoite replication” value [2] is on record?
**A.** no significant effect

**Q.** And the “effect on Me49 tachyzoite replication” value [3, 12]?
**A.** no significant effect

**Q.** And the “reversal” value [4]?
**A.** did not reverse immunosuppression

**Q.** And the “tachyzoite morphology” value (RH strain T. gondii [6])?
**A.** did not induce binucleated forms

**Q.** For `O=c1c(-c2ccc(O)cc2)coc2cc(O)cc(O)c12` [genistein], which “effect on intracellular T. gondii replication (Roisin et al.)” value (T. gondii [1]) is on record?
**A.** no significant effect

**Q.** For `[O]=[V]([O-])([O-])[O-]` [vanadate], which “state of infected fibroblast culture” value (T. gondii strain RH; [11]) is on record?
**A.** essentially destroyed

Source: patent US6649637B2, “Inhibition of intracellular replication by pyridinylimidazoles” (priority 2001, dated 2003)
